Reference: a melting point compilation (Tetko et al.; mined from patent text by program, amines drawn as free bases though some values may be those of a salt)

melting point	SMILES
95 °C	Cc1ccc2cc(-c3ccccc3)ccc2n1
130 to 132 °C	c1cc2c(c3c1CCN3)OCCO2
191 to 193 °C	CN1N=C2C(=Cc3ccccc3)CN(C(N)=O)CC2C1c1ccccc1 (stereo not drawn)
69 to 71 °C	CC1CCCN1CCCN1CCN(CCN2CCCC2C)C1=C(C#N)C#N (stereo not drawn)
83 to 84 °C	COc1cccc(C(=O)N(C)C)c1-c1ccccc1
170 °C	COC(=O)c1ccc(C=Cc2ccc(OC)cc2)nc1
127 to 129 °C	CN1C(=O)N(c2ccc(Cl)cc2)S(=O)(=O)c2ccc(OCC3CCCCC3)cc21
87 to 89 °C	COC(Cn1cncn1)(c1ccc(Cl)cc1)C(C)(C)C1CC1 (stereo not drawn)
140 to 143 °C	CCCNc1nc(NCCC)nc(N2CCN(C(=O)Nc3cc(C)c(C)nc3OC)CC2)n1
204 to 205 °C	N#Cc1c[nH]c2c(NS(=O)(=O)c3cccc(Cl)c3)cccc12
116 to 118 °C	CS(=O)(=O)c1ccc(C2=C(c3ccc(F)cc3)C(=O)C2(Cl)Cl)cc1
> 230 °C	O=C(Nc1ccc(-n2nc(C(F)(F)F)cc2C(F)(F)F)cc1)c1cc([N+](=O)[O-])cc([N+](=O)[O-])c1
232 to 233 °C	O=C(Cc1ccc(OCc2ccccc2F)cc1)NC1(C(=O)O)Cc2ccc(-c3ccc(Cl)cc3)cc2C1 (stereo not drawn)
175 to 176 °C	ClCc1coc(C=C2c3ccccc3-c3ccccc32)n1
108 °C	CC(C)C[C@H]1[C@@H](O)C(=O)N1C(=O)OC(C)(C)C
89 to 90 °C	CC(C)OC(=O)Nc1ccc(O)c(Cl)c1
210 °C	O=C(NC(Cc1ccc(OCc2ccccc2)cc1)C(=O)O)c1cn2cccc(OCc3ccc(Cl)cc3)c2n1 (stereo not drawn)
184 to 186 °C	Cc1nc2ccc(F)cc2c2c1ncn2C
134 to 135 °C	CCOC(=O)CNc1ncccc1NC(=O)c1cccc(F)c1
273 to 278 °C	CS(=O)(=O)c1ccc(-c2cnn(-c3ccc(C#N)cc3)c(=O)c2-c2ccc(F)cc2)cc1
176 °C	O=C1c2ccccc2CN1c1ccc(CCN2CCN(c3nsc4ccccc34)CC2)cc1
174 °C	CC(C)(C)OC(=O)N[C@H](C(=O)N1CCC[C@H]1C(=O)OCc1ccccc1)C(C)(C)C

melting point	SMILES
120 to 121 °C	COC(=O)[C@]1(OS(C)(=O)=O)C[C@H](CC(C)C)[C@@H]2O[C@@H]2C1
203 to 206 °C	O=C(O)c1cn(C2CC2)c2cc(N3CCNC(c4cc5ccccc5o4)C3)c(F)cc2c1=O (stereo not drawn)
162 to 164 °C	Fc1ccc(Cn2cnc3c(-c4ccco4)ncnc32)cc1
152 °C	COC1(OC)C=CC=CC1C1c2cccc(O)c2C(=O)c2c(O)cccc21 (stereo not drawn)
> 280 °C	O=c1[nH]c(=O)c2c(N3CCCCC3)cccc2[nH]1
178 to 180 °C	CC(=O)N1CCC(C(C)(O)c2ccc(Cl)cc2)CC1 (stereo not drawn)
172 °C	COc1c(OCCC(NC(=O)OCc2ccccc2)C(=O)O)cc2c(c1OC)C1=C(CCC1)C(=NNC1=CCNCN1)CC2 (racemic)
208 to 210 °C	O=C1CC(/C=C/c2ccncc2)=Nc2ccccc2N1Cc1ccccc1
122 °C	CCOC(=O)CN(Cc1ccccc1)C(=O)Cn1c2cccc(OCc3ccccc3)c2c2c(COC)c(C(=O)OC(C)C)ncc21
117 to 119 °C	CCCOCCOc1ccc(-c2ccc3c(c2)C=C(C(=O)OC)CCN3c2ccccc2)cc1
185 to 187 °C	O=C1[C@H]2CCC[C@H]2N(C(=O)CNS(=O)(=O)c2ccccc2)c2ccccc2N1Cc1ccccc1 (relative stereo)
216 to 217 °C	COc1cc2c(=O)c(OS(C)(=O)=O)cn(C)c2cc1OC
206 to 207 °C	CCCOc1ccc(OC)cc1-c1ncc(C(N)=O)c(=O)[nH]1
187 to 190 °C	O=C1c2ccccc2C(=O)N1C1CCN(CCCc2c[nH]c3ccccc23)CC1
176 to 178 °C	Cc1ccc2c(c1)C(=O)C(C#N)C2=O (stereo not drawn)
66 to 70 °C	CN(Cc1ccccc1)c1cc(Cl)c(C=O)c(Cl)c1
166 °C	O=C(O)C1CN(Cc2ccc(OCc3ccc(Cl)c(Cl)c3)cc2)C1
119 to 120 °C	Cc1cccc(N2CCN(CCc3c(C)nc4ccc(Cl)cn4c3=O)CC2)c1
69 to 78 °C	CCN1CCCC(CC)(c2ccc(Nc3ncc4ccc(-c5ccccc5OC)n4n3)cc2)C1 (stereo not drawn)
36 to 38 °C	CC1(C)NC(C)(C)c2ccccc21
> 260 °C	O=C(c1ccc(Cl)cc1)c1ccc2[nH]c(=O)cc(C(=O)O)c2c1
108 °C	O=Cc1ccc2ccc(-c3ccccc3)nc2c1

melting point	SMILES
59 to 61 °C	CC[Si](CC)(CC)c1cccc2c1oc1c([Si](CC)(CC)CC)cccc12
100 to 105 °C	CC(=O)[NH+]([O-])C[C@@H]1CN(c2cc(F)c(N3CCN(C(=O)CO)CC3)c(F)c2)C(=O)O1 (stereo partly drawn)
95 to 96 °C	O=C(CCN1CCCCC1)Nc1cccc([N+](=O)[O-])c1
104 to 108 °C	CCOC(=O)C1(NC(C)=O)CC2c3cc(C)ccc3Oc3ccccc3N2C1=O (stereo not drawn)
234 to 235 °C	O=C(CNc1c(C(=O)O)[nH]c2cc(Cl)cc(Cl)c12)c1ccccc1Cc1ccccc1
147 to 151 °C	COC(=O)c1ccc(-c2nnc(-c3ccc(C(C)C)cc3)s2)cc1
95 to 100 °C	COc1ccc2c(c1)NCC(c1ccccc1)O2 (stereo not drawn)
164 °C	O=C(Nc1ccccc1S(=O)(=O)c1ccccc1)N[C@@H](Cc1ccc(Oc2nccc3ccncc23)cc1)C(=O)O
105 °C	Nc1ccc2ccccc2c1-c1c(P(c2ccccc2)c2ccccc2)ccc2ccccc12
194 to 196 °C	COc1cc(C)nc(NC(=O)NS(=O)(=O)Cc2ccccc2-c2nnc(SC)o2)n1
131 to 133 °C	CC(=O)Oc1ccc(C(=O)NNC(=O)c2occ(-c3ccccc3)c2-c2ccccc2)cc1C#N
252 to 255 °C	O=C1NC(=O)c2c1c(-c1ccccc1)cc1c2c2cc(O)ccc2n1CCCN1CCOCC1
248 to 250 °C	O=C(O)c1ccc2c(c1)CCc1c(F)cccc1C2=O
165 to 166 °C	COC(=O)c1cc(Br)c(OC)c2c1OCO2
91 to 93 °C	CCOC(=O)COc1c(-c2ccccc2)cc(O)cc1-c1ccccc1
169 to 170 °C	CN1CCN(c2ccc(N/C=C3\C(=O)NC(=O)c4ccc(C#Cc5ccccc5)cc43)cc2)CC1
137 to 138 °C	CC(=S)NCC1CN(c2ccc(N3CCC(=CC#N)C(F)C3)c(F)c2)C(=O)O1 (stereo not drawn)
299 °C	O=C(O)c1ccc(C(=O)Nc2cccc(Nc3nc(-c4cccnc4)cs3)c2)cc1
242 to 244 °C	O=C(Nc1ccc(F)cc1)c1ccccc1SSc1ccccc1C(=O)Nc1ccc(F)cc1
136 to 137 °C	C[C@H](CO)Nc1cc(-n2cccn2)nc(-c2cccs2)n1
128 to 129 °C	COC(=O)C1=CCC(C#N)(c2ccc(OC)c(OC3CCCC3)c2)CC1 (stereo not drawn)

SMILES	melting point
CN(COC(=O)Cc1ccccc1)C(=O)OC(C)(C)C	96 to 98 °C
CCC1(O)CCC2C3CCC4CC(=O)CC(C)C4(C)C3CCC21C (stereo not drawn)	152 °C
OCCN1CCN(Cc2nnc3n2-c2ccc(Cl)cc2C(c2ccccc2)=NC3)CC1	113 to 118 °C
